Data reported in patent US9832995B2, “Microbial composition” (Rohm and Haas Company, priority 2011, dated 2017).
Several values for one entry are separate records, joined by “and”; a condition that tells them apart may be missing. Identical values can stand only once.

How the values were obtained:
[1] = tested on: Escherichia coli (E. coli - ATCC #10536); assay: Automated assessment of efficacy in model surfactant solution (2.85% sodium cocoyl glycinate + 1.85% sodium lauroamphoacetate, pH 10), 15 seconds exposure; format: cell-based; conditions: for MBC: Escherichia coli, ATCC10536, 15 s; for MBC / MBC (% w/v): 2.85% sodium cocoyl glycinate + 1.85% sodium lauroamphoacetate solution at pH 10, E. coli, component alone; for No. of replicates showing growth (out of 4) / ΔOD 450 nm = OD450 (time = 16 hours) − OD450 (time zero), Mean / ΔOD 590 nm = OD590 (time = 16 hours) − OD590 (time zero), Mean: model surfactant solution, pH 10, 15 s exposure
Procedure: In these examples, the efficacy of combinations of actives were tested in a surfactant cleansing formulation comprising 2.85% sodium cocoyl glycinate and 1.85% sodium, lauroamphoacetate.
This corresponds to a 50% in use dilution with water of a neat formulation containing 5.7% cocoyl glycinate and 3.7% sodium lauroamphoacetate during hand washing.
Solutions were prepared such that the concentrations of the surfactant components and test actives were 1.1× the final desired concentration in order to allow for dilution with the bacterial inoculum in the test. The solutions were manually adjusted to pH 10.0 by dropwise addition of sodium hydroxide solution, as measured with a pH meter at ambient temperature.
The efficacy of the combinations of the present invention was determined against Escherichia coli (E. coli—ATCC #10536), at a concentration of approximately 1×10^8 bacteria per mL.
Tests were conducted using standard microliter plate assays using an automated liquid handling system. 270 μl of the surfactant test solution was pipetted into each well of the microtitre plate and 30 μl of the bacterial suspension was then added. After exactly 15 seconds of bacterial exposure, a 30 μl volume of bacterial cells was withdrawn and transferred to 270 μl of D/E quench solution. After 5 minutes in the D/E quench, the optical density (OD) was measured for each plate in turn at two specific wavelengths (450 nm and 590 nm). These provide a dual check of antimicrobial, activity, as the OD450 reading is specific for the yellow colour of D/E quench when bacterial growth is observed, whereas OD590 is specific for the initial purple colour of the D/E quench which is retained if no bacterial growth is observed. After the time zero OD measurements, plates were then incubated at 37° C. overnight (16 hours) before repeating the OD measurements, Delta OD values were calculated by subtracting […] the initial value at time zero. Bacterial growth is observed as an increase in OD450 and a decrease in ΔOD590. To identify antibacterially efficacious systems (those preventing appreciable bacterial growth after incubation), the following threshold changes in OD readings have been adopted: if (1). OD450 increases by less than 0.2 absorbance unit on incubation and (2). OD590 decreases by less than 0.35 unit on incubation. Conversely, where OD450 increases by more than 0.2 AU and OD590 decreases by more than 0.35 unit after incubation, corresponding to a colour shift from purple to yellow, the test system allows bacterial growth and is not deemed efficacious. Four replicate measurements in the same plate have been made for each test system. The number of replicate wells showing either bacterial growth or no growth is also readily assessed by eye by following the colour change.

S. aureus 6538 = assay: Antimicrobial efficacy of actives against S. aureus in water; format: cell-based, Staphylococcus aureus
[2] = tested on: Escherichia coli (E. coli - ATCC #10536); assay: Synergy test: high resolution MBC microtiter plate assay, 15 seconds contact, phosphate buffer containing 35% dipropylene glycol; format: cell-based; conditions: E. coli 10536; for SI (Synergy Index = Qa/QA + Qb/QB): for Qa and Qb, less than one = synergy; for MBC of the component acting alone (QA or QB; Qa with Qb = 0, or Qb with Qa = 0): complete kill in 15 seconds, phosphate buffer with 35% DPG
Description: The concentrations and ratios may also vary under different test conditions or with different test methods.
One measure of synergy is the industrially accepted method described by Kull, F. C.; Eisman, P. C.; Sylwestrowicz, H. D. and Mayer, R. L., in Applied Microbiology 9:538-541 (1961), using the ratio determined by the formula: Qa/QA+Qb/QB=Synergy Index (“SI”) wherein: • QA=concentration of compound A (first component) in percent, acting alone, which produced an end point (MBC of Compound A). • Qa=concentration of compound A in percent, in the mixture, which produced an end point. • QB=concentration of compound B (second component) in percent, acting alone, which produced an end point (MBC of Compound B). • Qb=concentration of compound B in percent, in the mixture, which produced an end point.
When the sum Qa/QA and Qb/QB is greater than one, antagonism is indicated. […] The lower the SI, the greater is the synergy shown by that particular mixture. The minimum biocidal concentration (MBC) of a microbicide is the lowest concentration tested under a specific set of conditions that provides complete kill of the tested microorganisms.
Synergy tests were conducted using standard microliter plate assays with phosphate buffer containing 35% dipropylene glycol (DPG). In this method, a wide range of combinations of chemicals was tested by conducting high resolution MBC assays of Component (A) in the presence of various concentrations of Component (B). High resolution MBCs were determined by adding varying amounts of microbicide to one column of a microliter plate and doing subsequent […] dilutions using an automated liquid handling system to obtain a series of closely spaced endpoints. The MBC plate was inoculated one column at a time with the test microorganism. An aliquot of the inoculated well was transferred at 15 seconds to a plate containing a neutralising agent (D/E Neutralising Broth), mixed and held for 5 minutes before being transferred to a growth plate-containing trypticase soy broth (TSB). The TSB plate was incubated at 37° C. and read for the presence/absence of growth at 24 hours. The lowest level tested that provided complete kill (as evidenced by no growth in the microtitre plate) of the test organisms in 15 seconds is the minimum biocidal concentration (MBC).
The synergy of the combinations of the present invention was determined against a bacterium, Escherichia coli (E. coli—ATCC #10536), at a concentration of approximately 1×10^8 bacteria per mL. This microorganism is representative of natural contaminants in many consumer and industrial applications.

[3] = single active alone at 0.2% w/v
[4] = single active alone at 0.1% w/v
[5] = single active alone at 0.5% w/v
[6] = single active alone at 0.175% w/v

Molecule | SI (Synergy Index = Qa/QA + Qb/QB) [2] | No. of replicates showing growth (out of 4) [1, 3] | ΔOD 450 nm = OD450 (time = 16 hours) − OD450 (time zero), Mean [1, 3] | ΔOD 590 nm = OD590 (time = 16 hours) − OD590 (time zero), Mean [1, 3] | No. of replicates showing growth (out of 4) ([1]; single active alone at […] w/v) | ΔOD 450 nm = OD450 (time = 16 hours) − OD450 (time zero), Mean ([1]; single active alone at […] w/v) | ΔOD 590 nm = OD590 (time = 16 hours) − OD590 (time zero), Mean ([1]; single active alone at […] w/v) | other results
CC(C)(C)c1ccc(O)c(O)c1 [4-tert-butylbenzene-1,2-diol] | – | – | – | – | – | – | – | MBC [1]: > 2000 µg/mL
cyclopentyl phenol | – | – | – | – | – | – | – | Log Reduction (S. aureus 6538; 0.05% cyclopentyl phenol): 1.9
C=C(C)C1CCC(C)C(O)C1 (centres unmarked) [2-methyl-5-(prop-1-en-2-yl)cyclohexanol] | 1.00 | 4 | −0.49 | 0.63 | 4 | −0.43 | 0.66 | –
Oc1ccccc1C1CCCC1 [2-cyclopentylphenol] | 1.00 | – | – | – | – | – | – | –
Oc1ccc(Cc2ccccc2)cc1 [4-hydroxydiphenylmethane] | 1.00 | 4 | −0.52 | 0.61 | 4 | −0.55 | 0.54 | MBC of the component acting alone (QA or QB; Qa with Qb = 0, or Qb with Qa = 0) [2]: 1.0 weight % and 0.6 weight %; MBC (% w/v) [1]: >0.2 % w/v; No. of replicates showing growth (out of 4) [1, 4]: 4; ΔOD 450 nm = OD450 (time = 16 hours) − OD450 (time zero), Mean [1, 4]: −0.58; ΔOD 590 nm = OD590 (time = 16 hours) − OD590 (time zero), Mean [1, 4]: 0.52
C=C(C)C1CC=C(C)C(O)C1 (centres unmarked) [2-methyl-5-(prop-1-en-2-yl)cyclohex-2-enol] | 1.0 | – | – | – | 4 | – | – | Log Reduction (S. aureus 6538; […] carveol): 0.08; No. of replicates showing growth (out of 4) [1, 5]: 0; ΔOD 450 nm = OD450 (time = 16 hours) − OD450 (time zero), Mean [1, 5]: 0.23; ΔOD 590 nm = OD590 (time = 16 hours) − OD590 (time zero), Mean [1, 5]: 0.20
Oc1ccc(C2CCCC2)cc1 [4-cyclopentylphenol] | 1.00 | – | – | – | – | – | – | –
Cc1ccc(C(C)C)c(O)c1O [3-isopropyl-6-methylbenzene-1,2-diol] | – | – | – | – | – | – | – | MBC [1]: > 2000 µg/mL
C=C(C)[C@@H]1CC[C@@H](C)C[C@H]1O [(1R,2S,5R)-5-methyl-2-(prop-1-en-2-yl)cyclohexanol] | 1.00 | – | – | – | – | – | – | –
Oc1ccccc1Cc1ccccc1 [2-hydroxydiphenylmethane] | 1.00 | 4 | −0.51 | 0.63 | 4 | −0.49 | 0.64 | MBC of the component acting alone (QA or QB; Qa with Qb = 0, or Qb with Qa = 0) [2]: 0.8 weight % and 0.6 weight % and 1.0 weight % and 0.5 weight %; MBC (% w/v) [1]: >0.2 % w/v; No. of replicates showing growth (out of 4) [1, 4]: 4; ΔOD 450 nm = OD450 (time = 16 hours) − OD450 (time zero), Mean [1, 4]: −0.51; ΔOD 590 nm = OD590 (time = 16 hours) − OD590 (time zero), Mean [1, 4]: 0.62
Oc1cccc2c1CCCC2 [5,6,7,8-tetrahydronaphthalen-1-ol] | – | – | – | – | – | – | – | MBC of the component acting alone (QA or QB; Qa with Qb = 0, or Qb with Qa = 0) [2]: 0.6 weight %
Cc1cc(O)c(C(C)C)cc1Cl [4-chloro-2-isopropyl-5-methylphenol, reference compound] | – | 4 | −0.51 | 0.60 | 4 | −0.49 | 0.59 | No. of replicates showing growth (out of 4) [1, 6]: 4; ΔOD 450 nm = OD450 (time = 16 hours) − OD450 (time zero), Mean [1, 6]: −0.49; ΔOD 590 nm = OD590 (time = 16 hours) − OD590 (time zero), Mean [1, 6]: 0.58
C=C(C)C1CCC(C)CC1O (centres unmarked) [Isopulegol, 5-methyl-2-(prop-1-en-2-yl)cyclohexanol] | – | – | – | – | 4 | – | 0.64 | ΔOD 450 nm = OD450 (time = 16 hours) − OD450 (time zero), Mean [1, 5]: −0.09
